Data from patent US20050075276A1, “Use of inhibitors of glycogen synthase-3 to augment CD28 dependent -T-cell responses” (priority 2003, published 2005).

Experiments:
[1] = test system: K562 cells; assay: Cytolytic T-cell (CTL) killing of K562 cells, CytoTox96 assay; format: cell-based, human; conditions: for potentiation of cytolytic T-cell response: 6 days co-culture, FIG. 5A
Experimental: Cytotoxic activity was also measured and combined with a control where cultures were treated with anti-CD28 mAbs (5 μg/ml). After 6 days, cytolytic T-cells were harvested, washed twice and co-cultured with fresh K562 cells. Cytotoxcity was measured by the CytoTox96 non-radioative cytotoxicity assay from Promega (Southampton, UK).
(§1) Peripheral blood lymphocytes (PBLs) were isolated by Ficoll gradient centrifugation from Buffy coats, or from blood samples (60-120 cc) taken from healthy volunteers. Leukemic cells K562 were first treated with 50 ug/ml Mitomycin C (Sigma) for 1 hour in 5% CO2 incubator at 37° C. and then washed at least three times with RPMI 1640 to remove the presence of drug. Washed K562 cells and PBLs (1:5 ratio) were then resuspended in RPMI 1640 with 5% fetal calf serum, 1% penicillin-streptomycin and 1% L-glutamine. PBLs and leukemic cells were transferred into 24 well plate. […] Occassionally, PBLs would be preincubated with inhibitor for periods of time (i.e. 5-24 hours) prior to incubation with K562 cells. In either case, cell cultures were then allowed to incubate for 8 days in 5% CO2 incubator at 37° C. prior to an assessment of cytotoxic function. Over this period, the K562 cells die due to the treatment with mitomycin c.
For an assessment of cytotoxity, effector cells (PBLs) and fresh target cell K562 were added into 96 well plates at various ratios (50:1; 25:1 etc.). Culture medium, effector cells and target cells were added into separate wells as background controls. Cytotoxicity was assessed using a Cytotoxicity Assay kit (Promega) as outlined by the manufacturer.
Cytotoxicity was measured by CytoTox96® assay.

[2] = test system: Peripheral T-cells; assay: T-cell proliferation in response to tumor cell line K562 (3H-thymidine incorporation); format: cell-based, human; conditions: 48 hours, mitomycin C treated K562; FIG. 4
Experimental: as §1

[Cl-].[Li+] [Lithium Chloride]
effect on cytolytic T-cell (CTL) killing of K562 cells ([1]; FIG. 6, inhibitor added at 1 mM and 5 mM): enhances

O=C1NC(=O)C(c2ccccc2[N+](=O)[O-])=C1Nc1ccc(O)c(Cl)c1 [SB415286]
potentiation of cytolytic T-cell response ([1]; 10 um, 50:1 effector target ratio): 5-6 fold
potentiation of cytolytic T-cell response ([1]; 50 um, 25:1 ratio): 5-6 fold
increase in level of proliferative response to K562 [2]: two-three fold
